This assay has as its system old mice. As to the kind of experiment: Barnes Maze cognitive function (memory) test. Conditions: for Time searching for the escape hatch in the target zone after CE 18:1 versus before (FIG. 11): old mice (24 months), same mice before and after CE 18:1 enriched diet, 470 mg per kg. It counts as in vivo, mouse. As to the method:
The cognitive function of the mice was tested using a Barnes Maze. The Barnes maze makes use of a mouse's nature to avoid bright lights and open spaces. The Barnes maze was a white 150 cm disk with 36 evenly spaced holes. The disk is elevated 64 cm above the ground and four visual cues—two 3D cues and two 2D cues—are placed in four quadrants, denoting four possible escape holes. The escape box was placed under the assigned escape hole and fastened by tape. Four portable floodlights were used to evenly illuminate the maze and a light meter was used to ensure consistent brightness of 3400 to 3600 lux. Prior to the beginning of a trial, the maze and the escape box were cleaned with 80% ethanol to remove olfactory cues.
The mouse was placed in the centre of the maze under a cover. The cover was then retracted using a pulley system and the mouse was allowed to explore the maze for four minutes to find and enter the escape hole. If the mouse entered the escape hole in less than four minutes, the time was recorded and the floodlights switched off. If the mouse had not entered the escape hole after four minutes, the mouse was gently guided to the escape hole and lights were switched off. The mouse was allowed to remain in the escape box for one minute before it was returned to its home box outside the experimental room. For the probe trial, the escape box was removed and the trial length was shortened to 3 minutes (180 seconds). The duration required, distance traveled, and latency to the assigned escape hole was recorded using topscan lite 2.0. The time the mouse spent in the “target zone” (the 5 holes consisting of the assigned escape hole and the two holes on either side) searching for the assigned escape hole was also recorded.
Trials were conducted over seven days; day 1 contained a single habituation trial, days 2-6 contained 3 acquisition trials a day and day 7 contained a single probe trial. […]
The CE 18:1 oral administration consisted of 20 mg CE 18:1 suspended in 0.5 g of raspberry flavoured agar jelly. To prepare the CE 18:1 enriched jelly, 4 g of agar powder and 0.1 g NaOH pellets was dissolved in 13 ml raspberry flavoured cordial, with MilliQ water added q.s. to form a total of 200 mL jelly solution. To the jelly solution, 400 mg of cholesteryl oleate was suspended in 40 ml of jelly to form the CE 18:1 oral administration.
Seven old mice (24 months old) were subjected to the Barnes Maze as described above, and the time the mice spent investigating the “target zone” during the probe trial was investigated. The same seven old mice were then fed 0.5 g of the CE 18:1 enriched jelly once a day (20 mg CE 18:1, 4% w/w), which correlated to a CE 18:1 dosage rate of 470 mg per kg of bodyweight. The mice were the subjected to the Barnes Maze as described above, and the time the mice spent investigating the “target zone” during the probe trial was investigated.

The mark [1] stands for this setting: individual old mice (24 months), probe trial of 180 s, after 0.5 g CE 18:1 enriched jelly once a day orally (20 mg CE 18:1, 470 mg per kg bodyweight), one value per mouse.

Values joined by “and” are separate entries in the source; they are usually repeats but may differ in a detail not shown here. Equal values may be shown once.

On to `CCCCCCCC/C=C\CCCCCCCC(=O)O[C@H]1CC[C@@]2(C)C(=CC[C@H]3[C@@H]4CC[C@H]([C@H](C)CCCC(C)C)[C@@]4(C)CC[C@@H]32)C1` [CE 18:1, cholesteryl oleate], for which the “Percentage of time spent at target zone out of 180 sec (%), After CE 18:1, AVERAGE” value (average of seven old mice (24 months), probe trial, after CE 18:1 jelly orally 470 mg per kg, before CE 18:1: 4.70%) was determined as 9.5%. The “Duration at target zone (s), After CE 18:1, AVERAGE” value (average of seven old mice (24 months), probe trial, after CE 18:1 jelly orally 470 mg per kg, before CE 18:1: 8.47 s) is on record as 17.10 s. Moreover, the “Duration at target zone (s), After CE 18:1” value under setting [1] is 16.00 s and 16.48 s and 28.68 s and 4.84 s and 23.40 s and 21.28 s and 9.04 s. Moreover, under setting [1], the “Percentage of time spent at target zone out of 180 sec (%), After CE 18:1” value was 8.89% and 9.16% and 15.93% and 2.69% and 13.00% and 11.82% and 5.02%. In addition, the “Time searching for the escape hatch in the target zone after CE 18:1 versus before (FIG. 11)” value runs as follows: (probe trial) “statistical increase in time searching for the escape hatch in the target zone”; (probe trial, listed as cholesteryl oleate) “improved cognitive function in mice”; (probe trial, listed as cholesteryl oleate (CE 18:1)) “spent more time investigating the target zone”.

For the origin of these results see US12078642B2, “Methods for evaluating and improving cognitive function” (THE UNIVERSITY OF MELBOURNE, priority 2017, dated 2024).
